Laboratory results as given in patent publication USRE48636E1, “Decoy peptides inhibiting protein phosphatase 1-mediated dephosphorylation of phospholamban” (BethphaGen Inc., priority 2012, dated 2021).
“Also recorded” adds a separate entry of the source. No end group written: not given here.

Assays:
adult cardiomyocytes [1] = experiment: Cell contractility of isolated adult cardiomyocytes (video-based edge detection); set-up: species or system rat; details: for Effect on PMA-induced reduction in contractility (peak shortening, rates of contraction and relaxation): 1 μM peptide 45 min, then 1 μM PMA 15 min
Experimental: (§1) FIGS. 2a-2d represent the increase in cardiac contractility by the decoy peptides. Isolated adult cardiomyocytes were treated with 1 μM of indicated peptides for 45 min, and then with 1 μM of PMA for 15 min. Contractile parameters were then determined. FIGS. 2a and 2b show contractile parameters. Peak cell shortening, percentage of shortened cell length; −dL/dt, maximal rate of cell shortening; +dL/dt, maximal rate of cell relengthening. FIGS. 2c and 2d show average parameters of the transient Ca^2+ properties determined with Fura2/AM. Baseline [Ca^2+]i, baseline intracellular Ca^2+ levels; Δ[Ca^2+]i (340/380), increase in intracellular Ca^2+ levels in response to electric Stimuli; τ(ms), Ca^2+ transient decay rate. Approximately 500 cells were chosen for the contractility and Ca^2+ transient measurements were taken from eight individual hearts. #, P<0.05; *, P<0.01 compared to control; error bars represent SD.
(§2) Ventricular myocytes were isolated from SD rat hearts as previously described with minor modifications. Male rats of 8-12 weeks of age (250-320 g) were used. In brief, rats were anesthetized by the inhalation of isofluran (0.5%) for 5 min. The heart was quickly removed from the chest and the aorta was retrogradely perfused at 37° C. for 3 min with calcium-free Tyrode buffer (137 mM NaCl, 5.4 mM KCl, 1 mM MgCl2, 10 mM glucose, 10 mM HEPES [pH 7.4], 10 mM 2, 3-butanedione monoxime, and 5 mM taurine) gassed with 100% O2. The enzymatic digestion was then initiated by adding collagenase type B (0.35 U/ml; Roche) and hyaluronidase (0.1 mg/ml; Worthington) to the perfusion solution. When the heart became swollen after 10 min of digestion, the left ventricle was quickly removed, cut into several chunks, and further digested in a shaker (60-70 rpm) for 10 min at 37° C. in the same enzyme solution. The supernatant containing the dispersed myocytes was then filtered through a cell strainer (100 μm in pore size, BD Falcon) and gently centrifuged at 500 rpm for 1 min. Extracellular Ca^2+ was incrementally added back to a concentration of 1.25 mM over a span of 30 min to avoid the Ca^2+ paradox. This procedure usually yielded ≥80% viable rod-shaped ventricular myocytes with clear sarcomere striations. Myocytes with obvious sarcolemmal blebs or spontaneous contractions were discarded.
(§3) The mechanical properties of ventricular myocytes were assessed using a video-based edge detection system (IonOptix), as previously described. In brief, laminin-coated coverslips with attached cells were placed in a chamber mounted on the stage of an inverted microscope (Nikon Eclipse TE-100F) and perfused (about 1 ml/min at 37° C.) with Tyrode buffer (137 mM NaCl, 5.4 mM KCl, 1 mM CaCl2, 1 mM MgCl2, 10 mM glucose, and 10 mM HEPES [pH 7.4]). The cells were field-stimulated at a frequency of 3 Hz (30 V) using a STIM-AT stimulator/thermostat placed on a HLD-CS culture chamber/stim holder (Cell Micro Controls). […] Changes in cell length during shortening and relengthening were captured and analyzed using soft edge software (IonOptix). The cardiomyocytes were loaded with 0.5 μM Fura2-AM (Molecular Probes), a Ca^2+-sensitive indicator, for 15 min at 37° C. Fluorescence emissions were recorded simultaneously with the contractility measurements using Myocyte calcium and contractility recording system (IonOptix). Cardiomyocytes were exposed to light emitted by a 75 W halogen lamp through either a 340 or 380 nm filter while being field-stimulated as described above. Fluorescence emissions were detected between 480 and 520 nm by a photomultiplier tube after initial illumination at 340 nm for 0.5 ms and then at 380 nm for the duration of the recording protocol. The 340 nm excitation scan was then repeated at the end of the protocol, and qualitative changes in the intracellular Ca^2+ concentration were inferred from the ratio of the Fura fluorescence intensity at both wavelengths.

adult cardiomyocytes [2] = experiment: Intracellular Ca2+ transient measurement (Fura2-AM) in isolated adult cardiomyocytes; format: cell-based, rat; details: for Effect on PMA-induced defects in intracellular Ca2+ handling (Ca2+ transient amplitude, time constant of decay): 1 μM peptide 45 min, then 1 μM PMA 15 min, Fura2/AM
Experimental: as §1, §2, §3

[3] = tested on: PP1-mediated dephosphorylation of PLB; experiment: PLB phosphorylation (Western blot) in PMA-treated isolated adult cardiomyocytes; format: cell-based, rat; details: 1 μM peptide 45 min, then 1 μM PMA 15 min; for Blocking of PMA-induced dephosphorylation of PLB at Ser16 and Thr17 (elevating the phosphorylation levels of PLB): Western blot
Experimental: FIGS. 1c-1d represent the increase in PLB phosphorylation by the decoy peptides (FIG. 1c) and shortened decoy peptides (FIG. 1d). Isolated adult cardiomyocytes were treated with 1 μM of indicated peptides for 45 min, and then with 1 μM of PMA for 15 min. Western blots of cell lysates were then probed with antibodies against phospho-PLB (S^16), phospho-PLB (T^17), total PLB, or GAPDH. The decoy peptides contain the following sequences: ψPLB-SE, RAETIEMPQ (SEQ ID NO:1); ψPLB-SD, RADTIEMPQ (SEQ ID NO:3); ψPLB-TE, RASEIEMPQ (SEQ ID NO:2). The shortened decoy peptides contain the following sequences: ψPLB-8-mer, AETIEMPQ (SEQ ID NO:4); ψPLB-7-mer, RAETIEM (SEQ ID NO:5); ψPLB-6-mer, RAETIE (SEQ ID NO:6); ψPLB-5-mer: RAETI (SEQ ID NO:7). PMA, phorbol 12-myristate 13-acetate.
The decoy peptides were derived from the PLB protein sequence (SEQ ID NO:10) surrounding the phosphorylation sites Ser^16 and Thr^17: RAS^16T^17IEMPQ. The peptides were conjugated via a cystein-cystein bond at their N termini to the cell penetrating peptide TAT (YGRKKRRQRRR (SEQ ID NO:11)) to facilitate uptake into cells. The peptides used in this invention were as follows: ψPLB-wt, RASTIEMPQ (SEQ ID NO:8); ψPLB-SE, RAETIEMPQ (SEQ ID NO:1); ψPLB-TE, RASEIEMPQ (SEQ ID NO:2); ψPLB-SD, RADTIEMPQ (SEQ ID NO:3). In addition, shortened ψPLB-SE peptides were also tested: 8-mer, AETIEMPQ (SEQ ID NO:4); 7-mer, RAETIEM (SEQ ID NO:5); 6-mer, RAETIE (SEQ ID NO:6); 5-mer, RAETI (SEQ ID NO:7). All of the peptides were synthesized and modified by AnyGen (Gwangju, Korea) and dissolved in distilled water to a stock concentration of 1 mM. Peptides were >95% pure. The decoy peptides were treated for 1 h at a final concentration of 1 μM.
as §2
(§4) Heart lysates (50 μg) in SDS sample buffer were run on a SDS-PAGE gel and then transferred to a PVDF membrane (Bio-Rad). The membrane was blocked with a 5% skim milk solution and then incubated overnight with antibodies directed against PLB (Affinity Bioreagents), phospho-PLB (Ser^16, Cell Signaling), phospho-PLB (Thr^17, Badrilla), SERCA2a (Santa Cruz), Caspase 3 (Cell Signaling), or GAPDH (Santa Cruz). The membranes were then incubated with a secondary antibody conjugated to horseradish peroxidase (Jackson Immuno Research) and developed using the Western Lighting chemiluminescence reagent (Perkin Elmer).

rat hearts = experiment: Langendorff isolated perfused heart, ischemia/reperfusion ex vivo, left ventricular developed pressure; details: 20 min no-flow ischemia, 30 min reperfusion with 1 μM peptide
Experimental: (§5) FIGS. 3a-3b represent the postischemic cardiac performance ex vivo. […] The changes in left ventricular developed pressure (LVDP) are shown. n=4. *, P<0.01 compared to TAT; error bars represent SEM. […] Western blots probed with antibodies against phospho-PLB (S^16), phosphor-PLB (T^17), total PLB, Caspase 3, or GAPDH are shown.
Rats were anesthetized by inhalation of isofluran (0.5%) for 5 min. The heart was quickly removed and placed in cold oxygenated Tyrode solution (137 mM NaCl, 5.4 mM KCl, 1 mM MgCl2, 10 mM glucose, 1 mM CaCl2, 10 mM HEPES [pH 7.4], 100% O2). The aorta was cannulated and perfused by the Langendorff method with oxygenated Tyrode solution at constant pressure (65 mmHg, temperature 37±0.2° C.). A latex water-filled balloon was inserted into the left ventricular chamber and connected to a pressure transducer (AD Instruments) for continuous measurement of heart performance. Heart rate, left ventricular developed pressure (LVDP), and the first derivatives of LV pressure (LV +dP/dt max and LV −dP/dt max) were all recorded using PowerLab Chart Systems (AD Instruments). The balloon volume was adjusted in 250-300 μl to result in a measured end diastolic pressure in the range of 6-10 mmHg. After a 30 min stabilization period, the hearts were subjected to 20 min of no-flow to induce global ischemia, followed by 30 min of reperfusion. […]

PLB = experiment: Western blot of heart lysates after ischemia/reperfusion: phospho-PLB; set-up: species or system rat; details: heart lysates at the end of reperfusion with 1 μM peptide
Experimental: as §5, §4
(§6) Rats were anesthetized by inhalation of isofluran (0.5%) for 5 min. […] Heart rate, left ventricular developed pressure (LVDP), and the first derivatives of LV pressure (LV +dP/dt max and LV −dP/dt max) were all recorded using PowerLab Chart Systems (AD Instruments). The balloon volume was adjusted in 250-300 μl to result in a measured end diastolic pressure in the range of 6-10 mmHg. […]

Caspase 3 = experiment: Western blot of heart lysates after ischemia/reperfusion: Caspase 3; set-up: species or system rat; details: heart lysates at the end of reperfusion with 1 μM peptide
Experimental: as §5, §4, §6

[4] = 1 μM PMA 15 min, no decoy peptide

Row | Compound | Blocking of PMA-induced dephosphorylation of PLB at Ser16 and Thr17 (elevating the phosphorylation levels of PLB) [3] | Effect on PMA-induced reduction in contractility (peak shortening, rates of contraction and relaxation) (adult cardiomyocytes [1]) | Effect on PMA-induced defects in intracellular Ca2+ handling (Ca2+ transient amplitude, time constant of decay) (adult cardiomyocytes [2]) | further results
1 | CCCCCCCCCCCCCC(=O)O[C@@H]1[C@@H](C)[C@@]2(O)[C@@H](C=C(CO)C[C@]3(O)C(=O)C(C)=C[C@@H]23)[C@@H]2C(C)(C)[C@]12OC(C)=O [PMA, phorbol 12-myristate 13-acetate, reference compound] | – | – | – | Contractility (peak shortening, rates of contraction and relaxation) (adult cardiomyocytes [1]; [4]): significantly reduced; Ca2+ transient amplitude (adult cardiomyocytes [2]; [4]): significant reduction; Time constant of the Ca2+ transient decay (adult cardiomyocytes [2]; [4]): significant increase
2 | AETIEMPQ (not fully specified (N-terminus); also: TAT coupled) [ψPLB-8-mer] | only ψPLB-5-mer was ineffective | – | – | –
3 | RADTIEMPQ (not fully specified (N-terminus); also: TAT coupled) [ψPLB-SD] | as effective as ψPLB-SE | as effective as ψPLB-SE | as effective as ψPLB-SE | –
4 | RAETI [ψPLB-5-mer] | ineffective | – | – | –
5 | RAETIE [ψPLB-6-mer] | only ψPLB-5-mer was ineffective | as effective as ψPLB-SE | as effective as ψPLB-SE | –
6 | RAETIEM [ψPLB-7-mer] | only ψPLB-5-mer was ineffective | – | – | –
7 | RAETIEMPQ (not fully specified (N-terminus); also: TAT coupled) [ψPLB-SE] | significantly blocked; also recorded: prevented dephosphorylation | completely prevented | completely reversed | Phosphorylation levels of PLB after treatment compared with basal levels [3]: slightly but significantly higher than the basal levels; Left ventricular developed pressure after ischemia/reperfusion (rat hearts; I/R alone 37-44 mmHg, pre-ischemia 80-100 mmHg): 73-78 mmHg; Phosphorylation of PLB at Ser16 after ischemia/reperfusion (PLB): significantly recovered; I/R-induced activation of cell death-related Caspase 3 (Caspase 3): completely reversed
8 | RASEIEMPQ (not fully specified (N-terminus); also: TAT coupled) [ψPLB-TE] | blocked dephosphorylation but was less effective than ψPLB-SE; also recorded: not as effective as ψPLB-SE | no or only marginal effects | negligible or marginal | –
9 | RASTIEMPQ (not fully specified (N-terminus); also: TAT coupled via disulfide) [ψPLB-wt] | – | no or only marginal effects | negligible or marginal | –
10 | YGRKKRRQRRR (Human immunodeficiency virus) [TAT, reference compound] | – | – | – | Effect on left ventricular developed pressure after ischemia/reperfusion (rat hearts): no effects
